The results in this text go back to publication PMC9898036, “VIP152 is a selective CDK9 inhibitor with pre-clinical in vitro and in vivo efficacy in chronic lymphocytic leukemia” (Leukemia, 2022).

The term inhibition denotes the share of the control response that was lost under treatment. High values mean a response far below the control, low ones a response near the control. As a reminder, the IC50 is the concentration that inhibits the measured activity by half. Read a high IC50 as lower potency.

The target in assay [1] is Transporter, Dopamine (DAT) (Homo sapiens, UniProt Q01959). Description: Eurofins Diversity Panel. Conditions: hum, Conc. 10 μM. Type of assay: binding.
The target in another assay is EGFR(L858R,T790M) (Homo sapiens, UniProt P00533, L858R/T790M). Description: KINOMEscan: EGFR(L858R,T790M). Type of assay: binding. The settings on record: 1000 nM, read-out: Percent Control.
The target of assay [2] is RSK1(Kin.Dom.1-N-terminal) (Homo sapiens, UniProt Q15418). Description: KINOMEscan: RSK1(Kin.Dom.1-N-terminal). Type of assay: binding. The settings on record: 100 nM, read-out: Percent Control.
In the next assay the target is EGFR(L861Q) (Homo sapiens, UniProt P00533, L861Q). Description: KINOMEscan: EGFR(L861Q). The class given is binding. The settings on record: 1000 nM, read-out: Percent Control.
For a further assay, the system named is Thyroid Hormone. As to the kind of experiment: Eurofins Diversity Panel. The class given is binding. Conditions: rat, Conc. 10 μM.
For the next assay, the target named is IKK-alpha (Homo sapiens, UniProt O15111). Description: KINOMEscan: IKK-alpha. Type of assay: binding. The settings on record: 1000 nM, read-out: Percent Control.
For the next assay, the target named is INSR (Homo sapiens, UniProt P06213). Description: KINOMEscan: INSR. The settings on record: 1000 nM, read-out: Percent Control. The class given is binding.
For the next assay, the target named is ABL2 (Homo sapiens, UniProt P42684). As to the kind of experiment: KINOMEscan: ABL2. The settings on record: 1000 nM, read-out: Percent Control. Type of assay: binding.
The next assay addresses YSK1 (Homo sapiens, UniProt O00506). Description: KINOMEscan: YSK1. The class given is binding. Conditions: 100 nM, read-out: Percent Control.
A further assay concerns the target GRK2 (Homo sapiens, UniProt P25098). As to the kind of experiment: KINOMEscan: GRK2. The settings on record: 1000 nM, read-out: Percent Control. Type of assay: binding.
Another assay addresses GSK3α (Homo sapiens, UniProt P49840). As to the kind of experiment: HotSpot radiometric kinase assay. Type of assay: biochemical. Details: purchased ReactionBio. Conditions: 10-dose series from 0.5 nM to 10 µM; vs dinaciclib, KB-0742, atuveciclib. On the procedure:
(§1) We next compared VIP152 to other CDK inhibitors currently in development. […] The compounds were tested in a 10-dose series from 0.5 nM to 10 µM against CDK9 in complex with Cyclin T1/T2/K, CDK7/Cyclin H, and GSK3α/β.
(§2) Kinomescan Kinase Profiling Assay
(§3) Kinomescan Assay was performed at DiscoverRX and described in Fabian, et al. 2005, Nat.
(§4) Biotechnol. In brief, kinases were produced and subsequently tagged with DNA for qPCR detection.
(§5) Streptavidin-coated magnetic beads were bound to biotinylated kinase ligands to serve as a solid support.
(§6) VIP152 was dissolved in DMSO and tested across a 10 serial threefold dilution set and compared to a test […]
(§7) compound and a DMSO control.
(§8) Kinome map was produced via TreeSpot
(§9) Analysis from DiscoverRX.
(§10) HotSpot Kinase Assay Protocol
(§11) Compounds tested via HotSpot Kinase Assay were sent to ReactionBio for the experiment. The […]
(§12) Kinase substrate was added to reaction buffer (20 mM Hepes (pH 7.5), 10 mM MgCl2, 1 mM EGTA, 0.01% Brij35, 0.02 mg/ml BSA, 0.1 mM Na3VO4, 2 mM DTT, 1% DMSO). Cofactors and kinases were gently added to the reaction buffer. Compounds to be tested were dissolved in 100% DMSO and were delivered into the kinase reaction mixture by Acoustic technology (Echo550; nanoliter range) and incubated for 20 min at room temperature. […] Kinase activity was detected by P81 filter-binding method. […]

Another assay addresses CDK7/Cyclin H (Homo sapiens, UniProt P50613). Description: HotSpot radiometric kinase assay. The class given is biochemical. Details: purchased ReactionBio. The protocol:
as §1, §2, §3, §4, §5, §6, §7, §8, §9, §10, §11, §12

The target in another assay is IRAK4 (Homo sapiens, UniProt Q9NWZ3). As to the kind of experiment: KINOMEscan: IRAK4. The settings on record: 1000 nM, read-out: Percent Control. Type of assay: binding.
The next assay deals with ASK2 (Homo sapiens, UniProt O95382). As to the kind of experiment: KINOMEscan: ASK2. The settings on record: 1000 nM, read-out: Percent Control. The class given is binding.
The next assay concerns the target JNK3 (Homo sapiens, UniProt P53779). Description: KINOMEscan: JNK3. Type of assay: binding. Conditions: 1000 nM, read-out: Percent Control.
A further assay addresses HIPK4 (Homo sapiens, UniProt Q8NE63). As to the kind of experiment: KINOMEscan: HIPK4. The class given is binding. The settings on record: 1000 nM, read-out: Percent Control.
The target in the next assay is DMPK2 (Homo sapiens, UniProt Q6DT37). As to the kind of experiment: KINOMEscan: DMPK2. Type of assay: binding. Conditions: 1000 nM, read-out: Percent Control.
The target of another assay is FRK (Homo sapiens, UniProt P42685). Description: KINOMEscan: FRK. Type of assay: binding. The settings on record: 1000 nM, read-out: Percent Control.
Another assay has as its target SRMS (Homo sapiens, UniProt Q9H3Y6). As to the kind of experiment: KINOMEscan: SRMS. Type of assay: binding. The settings on record: 100 nM, read-out: Percent Control.
In another assay the target is TAK1 (Homo sapiens, UniProt O43318). Description: KINOMEscan: TAK1. The class given is binding. The settings on record: 100 nM, read-out: Percent Control.
A further assay deals with ACVRL1 (Homo sapiens, UniProt P37023). Description: KINOMEscan: ACVRL1. Type of assay: binding. The settings on record: 1000 nM, read-out: Percent Control.
In a further assay the target is MARK4 (Homo sapiens, UniProt Q96L34). Description: KINOMEscan: MARK4. The settings on record: 1000 nM, read-out: Percent Control. Type of assay: binding.
For another assay, the target named is YANK1 (Homo sapiens, UniProt Q8WU08). As to the kind of experiment: KINOMEscan: YANK1. The class given is binding. The settings on record: 100 nM, read-out: Percent Control.

Sequence of YSK1 (O00506 whole entry): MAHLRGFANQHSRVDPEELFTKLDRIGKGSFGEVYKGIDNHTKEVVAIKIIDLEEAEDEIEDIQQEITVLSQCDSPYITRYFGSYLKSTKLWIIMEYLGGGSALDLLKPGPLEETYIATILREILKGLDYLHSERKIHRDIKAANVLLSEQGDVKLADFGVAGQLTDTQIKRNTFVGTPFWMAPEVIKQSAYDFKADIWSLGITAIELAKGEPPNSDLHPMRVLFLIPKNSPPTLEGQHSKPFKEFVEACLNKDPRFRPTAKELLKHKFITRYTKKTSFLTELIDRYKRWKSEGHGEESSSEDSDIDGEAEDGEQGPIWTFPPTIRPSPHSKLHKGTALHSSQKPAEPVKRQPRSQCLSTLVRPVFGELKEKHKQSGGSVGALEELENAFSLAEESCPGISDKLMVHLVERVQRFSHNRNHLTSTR
Sequence of IRAK4 (Q9NWZ3 whole entry): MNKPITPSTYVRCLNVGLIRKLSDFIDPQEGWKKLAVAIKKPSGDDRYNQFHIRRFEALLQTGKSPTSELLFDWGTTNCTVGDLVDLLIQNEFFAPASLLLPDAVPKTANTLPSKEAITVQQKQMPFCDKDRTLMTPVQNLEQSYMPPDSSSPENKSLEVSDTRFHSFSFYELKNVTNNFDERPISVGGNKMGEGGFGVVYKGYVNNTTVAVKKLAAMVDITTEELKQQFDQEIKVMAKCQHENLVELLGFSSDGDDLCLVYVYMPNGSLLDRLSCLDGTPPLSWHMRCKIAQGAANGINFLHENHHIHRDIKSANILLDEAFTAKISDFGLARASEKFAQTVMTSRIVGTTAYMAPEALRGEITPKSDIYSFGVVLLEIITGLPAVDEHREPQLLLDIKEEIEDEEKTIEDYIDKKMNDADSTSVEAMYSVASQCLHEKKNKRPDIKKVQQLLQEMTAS
Sequence of MARK4 (Q96L34 whole entry): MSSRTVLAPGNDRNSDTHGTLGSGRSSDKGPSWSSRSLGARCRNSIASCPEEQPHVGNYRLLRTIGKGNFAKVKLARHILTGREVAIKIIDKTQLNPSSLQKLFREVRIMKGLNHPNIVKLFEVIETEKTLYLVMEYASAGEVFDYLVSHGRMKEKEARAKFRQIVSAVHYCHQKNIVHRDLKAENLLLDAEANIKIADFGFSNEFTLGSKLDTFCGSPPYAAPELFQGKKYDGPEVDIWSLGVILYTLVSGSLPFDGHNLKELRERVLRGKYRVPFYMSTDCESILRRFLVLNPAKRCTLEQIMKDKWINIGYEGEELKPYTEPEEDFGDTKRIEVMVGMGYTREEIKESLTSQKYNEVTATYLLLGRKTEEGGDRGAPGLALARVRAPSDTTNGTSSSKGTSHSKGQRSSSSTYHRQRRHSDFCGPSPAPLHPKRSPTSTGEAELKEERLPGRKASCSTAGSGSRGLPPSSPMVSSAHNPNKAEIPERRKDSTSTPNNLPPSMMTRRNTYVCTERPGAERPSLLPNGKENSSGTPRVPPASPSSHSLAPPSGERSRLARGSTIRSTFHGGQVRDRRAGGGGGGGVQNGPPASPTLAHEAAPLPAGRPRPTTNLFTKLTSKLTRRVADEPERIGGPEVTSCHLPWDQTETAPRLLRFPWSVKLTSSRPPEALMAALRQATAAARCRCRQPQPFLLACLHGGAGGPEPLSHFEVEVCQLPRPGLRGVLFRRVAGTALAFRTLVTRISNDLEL
Sequence of TAK1 (O43318 whole entry): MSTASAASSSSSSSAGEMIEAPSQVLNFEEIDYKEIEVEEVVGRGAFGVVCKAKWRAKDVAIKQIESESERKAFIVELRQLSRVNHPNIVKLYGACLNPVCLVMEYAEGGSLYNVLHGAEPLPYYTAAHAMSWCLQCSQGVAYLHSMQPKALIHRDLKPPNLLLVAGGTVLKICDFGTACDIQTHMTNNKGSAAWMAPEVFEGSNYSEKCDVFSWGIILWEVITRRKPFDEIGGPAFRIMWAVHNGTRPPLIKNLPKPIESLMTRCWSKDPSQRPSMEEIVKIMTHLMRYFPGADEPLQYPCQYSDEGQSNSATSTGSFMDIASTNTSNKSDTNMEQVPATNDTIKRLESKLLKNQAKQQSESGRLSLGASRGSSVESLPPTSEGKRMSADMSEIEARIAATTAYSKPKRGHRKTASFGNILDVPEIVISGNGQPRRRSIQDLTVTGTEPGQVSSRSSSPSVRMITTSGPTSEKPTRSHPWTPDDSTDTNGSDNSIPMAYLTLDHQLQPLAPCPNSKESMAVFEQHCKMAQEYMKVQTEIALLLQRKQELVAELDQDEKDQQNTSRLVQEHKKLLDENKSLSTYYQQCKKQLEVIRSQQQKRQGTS
Sequence of IKK-alpha (O15111 whole entry): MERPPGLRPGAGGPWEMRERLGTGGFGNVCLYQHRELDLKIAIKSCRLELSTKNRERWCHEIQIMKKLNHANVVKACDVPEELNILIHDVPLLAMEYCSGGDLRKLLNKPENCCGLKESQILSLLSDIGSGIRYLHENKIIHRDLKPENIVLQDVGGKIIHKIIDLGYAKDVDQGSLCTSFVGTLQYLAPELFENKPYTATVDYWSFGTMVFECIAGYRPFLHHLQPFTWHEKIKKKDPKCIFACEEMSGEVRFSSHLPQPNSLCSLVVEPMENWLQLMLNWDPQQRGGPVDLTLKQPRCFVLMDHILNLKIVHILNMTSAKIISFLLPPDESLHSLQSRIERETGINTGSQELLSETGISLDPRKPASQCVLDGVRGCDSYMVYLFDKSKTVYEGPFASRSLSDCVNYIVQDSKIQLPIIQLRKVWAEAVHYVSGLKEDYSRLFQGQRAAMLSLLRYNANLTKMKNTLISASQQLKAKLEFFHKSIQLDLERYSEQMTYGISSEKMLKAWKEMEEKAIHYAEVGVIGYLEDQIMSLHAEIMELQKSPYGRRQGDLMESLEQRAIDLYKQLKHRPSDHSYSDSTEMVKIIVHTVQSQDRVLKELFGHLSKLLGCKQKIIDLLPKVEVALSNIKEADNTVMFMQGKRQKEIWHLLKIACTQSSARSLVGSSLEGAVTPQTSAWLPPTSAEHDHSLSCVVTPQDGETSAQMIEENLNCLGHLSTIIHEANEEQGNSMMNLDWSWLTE
Sequence of CDK7/Cyclin H (P50613 whole entry): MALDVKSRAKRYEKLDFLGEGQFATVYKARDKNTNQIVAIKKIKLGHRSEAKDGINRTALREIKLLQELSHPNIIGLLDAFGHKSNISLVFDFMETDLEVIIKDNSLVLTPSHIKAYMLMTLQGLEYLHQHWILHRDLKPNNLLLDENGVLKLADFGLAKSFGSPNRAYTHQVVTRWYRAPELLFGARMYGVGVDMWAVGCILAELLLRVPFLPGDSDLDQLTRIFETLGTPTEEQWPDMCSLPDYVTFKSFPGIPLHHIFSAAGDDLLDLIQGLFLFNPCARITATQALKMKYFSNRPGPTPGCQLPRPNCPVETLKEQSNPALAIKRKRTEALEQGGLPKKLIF
Sequence of CDK7/Cyclin H (P51946 whole entry partner): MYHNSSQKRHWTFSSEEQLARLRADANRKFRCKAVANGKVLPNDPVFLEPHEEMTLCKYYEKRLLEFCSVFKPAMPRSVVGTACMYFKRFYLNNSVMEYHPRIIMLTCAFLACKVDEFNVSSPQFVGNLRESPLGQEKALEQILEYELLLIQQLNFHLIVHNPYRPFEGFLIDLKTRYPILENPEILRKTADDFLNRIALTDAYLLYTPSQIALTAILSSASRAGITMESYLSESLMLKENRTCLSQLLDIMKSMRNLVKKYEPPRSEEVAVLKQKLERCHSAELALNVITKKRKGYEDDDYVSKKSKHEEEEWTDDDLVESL
Sequence of CDK7/Cyclin H (P51948 whole entry partner): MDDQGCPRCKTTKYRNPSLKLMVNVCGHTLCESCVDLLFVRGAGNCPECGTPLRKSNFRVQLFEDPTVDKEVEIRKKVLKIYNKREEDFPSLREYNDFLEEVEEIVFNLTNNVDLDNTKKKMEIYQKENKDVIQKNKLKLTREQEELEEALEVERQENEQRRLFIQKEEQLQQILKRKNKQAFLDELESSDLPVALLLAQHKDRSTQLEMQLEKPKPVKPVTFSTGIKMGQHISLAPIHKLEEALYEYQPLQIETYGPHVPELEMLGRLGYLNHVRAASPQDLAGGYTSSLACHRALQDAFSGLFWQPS
Sequence of FRK (P42685 whole entry): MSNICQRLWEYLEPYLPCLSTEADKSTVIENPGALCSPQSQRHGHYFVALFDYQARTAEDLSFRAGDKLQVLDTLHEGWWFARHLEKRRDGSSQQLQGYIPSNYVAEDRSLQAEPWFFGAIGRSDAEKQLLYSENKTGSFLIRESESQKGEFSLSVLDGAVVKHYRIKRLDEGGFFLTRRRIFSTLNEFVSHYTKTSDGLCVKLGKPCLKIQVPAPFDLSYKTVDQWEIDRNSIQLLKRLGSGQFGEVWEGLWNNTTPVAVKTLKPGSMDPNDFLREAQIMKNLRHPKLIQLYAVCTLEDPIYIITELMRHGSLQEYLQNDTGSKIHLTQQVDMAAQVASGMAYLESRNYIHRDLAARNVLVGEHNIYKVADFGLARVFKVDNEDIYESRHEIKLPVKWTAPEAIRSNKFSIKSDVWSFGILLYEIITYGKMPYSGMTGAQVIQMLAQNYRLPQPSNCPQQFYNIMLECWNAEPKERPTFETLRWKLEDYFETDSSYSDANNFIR
Sequence of RSK1(Kin.Dom.1-N-terminal) (Q15418 1-391 limits assumed): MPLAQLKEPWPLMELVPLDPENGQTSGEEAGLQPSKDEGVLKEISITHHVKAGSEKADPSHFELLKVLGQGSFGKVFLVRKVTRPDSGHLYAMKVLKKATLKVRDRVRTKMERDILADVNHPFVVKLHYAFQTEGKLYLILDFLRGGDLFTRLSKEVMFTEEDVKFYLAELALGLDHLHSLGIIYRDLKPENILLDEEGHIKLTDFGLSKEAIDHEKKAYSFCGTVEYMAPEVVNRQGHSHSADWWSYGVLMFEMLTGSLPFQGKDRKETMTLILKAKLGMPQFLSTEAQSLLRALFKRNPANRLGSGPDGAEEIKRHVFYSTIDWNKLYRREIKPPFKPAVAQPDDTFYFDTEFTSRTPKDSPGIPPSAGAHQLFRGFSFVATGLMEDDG

Molecule `COc1cc(F)ccc1-c1cc(Nc2cc(CS(C)(=N)=O)ccn2)ncc1F` (centres unmarked) [VIP152] registered an inhibition at 10 µM in assay [1] of 31%. In addition, the remaining binding at 1 µM at EGFR(L858R,T790M) came out at 81%; at EGFR(L861Q), 100%; on IKK-alpha it was 93%; on INSR, 97%; at ABL2, 65%; on GRK2, 98%. Also, the remaining binding at 1 µM was found to be 78% at IRAK4; 91% on ASK2; 82% on JNK3; 68% on HIPK4; 88% on DMPK2; 47% at FRK. The remaining binding at 1 µM was 38% on ACVRL1 and 88% at MARK4. For the same molecule, the remaining binding at 0.1 µM in assay [2] turned out to be 100%; at YSK1, 100%; on SRMS, 98%; on TAK1 it was 97%; on YANK1, 100%. Further, the “% Inh.” value with Thyroid Hormone came out at 20%. On GSK3α, the “potency versus the other inhibitors tested” value was “higher potency”. Also, the IC50 on CDK7/Cyclin H was above 10 µM.
